The values that follow come from patent US20140088103A1, “(FUSED RING ARYLAMINO AND HETEROCYCLYLAMINO) PYRIMIDINYL AND 1,3,5-TRIAZINYL BENZIMIDAZOLES, PHARMACEUTICAL COMPOSITIONS THEREOF, AND THEIR USE IN TREATING PROLIFERATIVE DISEASES” (MEI PHARMA, INC., priority 2011, published 2014).

For test [1], the target named is T1, PI3K alpha (p110α) (Homo sapiens, UniProt P42336).
T1 construct: purchased Invitrogen Corp., Carlsbad, Calif., USA
In words: Luciferase-based luminescence assay (Kinase GLO), PI3K alpha. The class given is biochemical. To be noted: 1.65 nM enzyme, 50 μM PIP2, 25 μM ATP, 1 hour reaction. The procedure:
(§1) PI3K catalyzes the conversion of phosphatidylinositol-4,5-bisphosphate (PIP2) and ATP to phosphatidylinositol-3,4,5-trisphosphate (PIP3) and ADP. PI3K enzymatic activity was determined by measuring the amount of ATP consumed following the kinase reaction using a luciferase-based luminescence assay (Kinase GLO®, Promega Corp., Madison, Wis., USA) in a reaction buffer. The reaction buffer contained 50 mM HEPES, pH 7.5, 3 mM MgCl2, 1 mM EGTA, 100 mM NaCl, 0.03% CHAPS, and 2 mM DTT. Compounds for testing were dissolved and serially diluted in 100% DMSO (total of 10 concentrations), and then diluted 1:25 in the reaction buffer. PI3K enzyme solutions were prepared by diluting PI3K alpha (Invitrogen Corp., Carlsbad, Calif., USA) or PI3K delta (Millipore, Billerica, Mass., USA) in the reaction buffer to 4× the final assay concentration. The final concentrations of enzymes were 1.65 nM and 6.86 nM for PI3K alpha and PI3K delta, respectively. A substrate solution was prepared by mixing PIP2 and ATP in reaction buffer at 2× the final assay concentration. The final concentrations were 50 μM and 25 μM for PIP2 and ATP, respectively. To individual wells of white low volume 384-well assay plates were added 2.5 μl each of the compound and kinase mixtures, followed by shaking. The reactions were started by adding 5 μl of substrate mixture per well and shaking. The assay plates were covered and reactions were allowed to proceed for 1 hour (PI3K alpha) or 2 hours (PI3K delta), after which 10 μl of Kinase GLO® reagent was added. The plates were briefly centrifuged and incubated for 10 minutes, after which luminescence was measured using a FlexStation plate reader (Molecular Devices, Sunnyvale, Calif., USA). IC50 values were determined by curve fitting using Graphpad Prism software (Graphpad Software, La Jolla, Calif., USA).
In general terms: Kinase-Glo reads ATP consumption through a luciferase reaction.

Test [2] has as its target T2, PI3K delta (p110δ) (Homo sapiens, UniProt O00329).
T2 construct: purchased Millipore, Billerica, Mass., USA
Nature of the test: Luciferase-based luminescence assay (Kinase GLO), PI3K delta. It is filed as biochemical. The conditions noted are these: for IC50: 6.86 nM enzyme, 50 μM PIP2, 25 μM ATP, 2 hours reaction; for α/δ ratio: ratio of IC50 against PI3Kα over IC50 against PI3Kδ. The procedure: as §1

For orientation: IC50 means the point on the concentration scale where inhibition reaches its midpoint. Read a low IC50 as inhibition by little substance.

T1 sequence (P42336 whole entry): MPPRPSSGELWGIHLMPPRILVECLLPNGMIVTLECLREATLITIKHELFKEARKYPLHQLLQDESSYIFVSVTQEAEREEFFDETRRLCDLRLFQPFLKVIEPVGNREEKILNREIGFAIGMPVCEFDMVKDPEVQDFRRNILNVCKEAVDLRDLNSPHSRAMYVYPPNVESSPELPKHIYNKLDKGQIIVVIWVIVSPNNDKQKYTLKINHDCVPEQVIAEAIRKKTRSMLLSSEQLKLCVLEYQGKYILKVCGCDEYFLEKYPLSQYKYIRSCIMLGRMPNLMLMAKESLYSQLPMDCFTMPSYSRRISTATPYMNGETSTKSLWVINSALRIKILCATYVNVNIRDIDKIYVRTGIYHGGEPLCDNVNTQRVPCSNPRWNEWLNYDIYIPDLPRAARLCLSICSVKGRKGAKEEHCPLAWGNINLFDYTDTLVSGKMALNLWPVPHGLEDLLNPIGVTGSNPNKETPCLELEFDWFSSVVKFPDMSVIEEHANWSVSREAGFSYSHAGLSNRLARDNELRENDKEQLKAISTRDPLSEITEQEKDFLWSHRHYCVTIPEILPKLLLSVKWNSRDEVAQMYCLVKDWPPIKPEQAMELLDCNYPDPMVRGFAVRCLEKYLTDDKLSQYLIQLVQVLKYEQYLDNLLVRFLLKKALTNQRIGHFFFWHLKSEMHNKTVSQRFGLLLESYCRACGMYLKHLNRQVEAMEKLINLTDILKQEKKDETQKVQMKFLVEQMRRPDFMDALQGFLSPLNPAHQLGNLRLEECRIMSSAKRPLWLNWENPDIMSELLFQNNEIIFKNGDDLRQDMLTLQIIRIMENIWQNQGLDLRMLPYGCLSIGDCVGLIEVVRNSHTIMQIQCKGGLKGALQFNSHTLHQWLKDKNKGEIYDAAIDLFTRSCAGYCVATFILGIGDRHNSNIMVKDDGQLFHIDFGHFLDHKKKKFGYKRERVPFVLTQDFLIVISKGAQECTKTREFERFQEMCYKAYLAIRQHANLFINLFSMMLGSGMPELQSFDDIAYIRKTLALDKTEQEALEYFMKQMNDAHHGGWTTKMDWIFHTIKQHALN
T1 sequence (P27986 whole entry partner): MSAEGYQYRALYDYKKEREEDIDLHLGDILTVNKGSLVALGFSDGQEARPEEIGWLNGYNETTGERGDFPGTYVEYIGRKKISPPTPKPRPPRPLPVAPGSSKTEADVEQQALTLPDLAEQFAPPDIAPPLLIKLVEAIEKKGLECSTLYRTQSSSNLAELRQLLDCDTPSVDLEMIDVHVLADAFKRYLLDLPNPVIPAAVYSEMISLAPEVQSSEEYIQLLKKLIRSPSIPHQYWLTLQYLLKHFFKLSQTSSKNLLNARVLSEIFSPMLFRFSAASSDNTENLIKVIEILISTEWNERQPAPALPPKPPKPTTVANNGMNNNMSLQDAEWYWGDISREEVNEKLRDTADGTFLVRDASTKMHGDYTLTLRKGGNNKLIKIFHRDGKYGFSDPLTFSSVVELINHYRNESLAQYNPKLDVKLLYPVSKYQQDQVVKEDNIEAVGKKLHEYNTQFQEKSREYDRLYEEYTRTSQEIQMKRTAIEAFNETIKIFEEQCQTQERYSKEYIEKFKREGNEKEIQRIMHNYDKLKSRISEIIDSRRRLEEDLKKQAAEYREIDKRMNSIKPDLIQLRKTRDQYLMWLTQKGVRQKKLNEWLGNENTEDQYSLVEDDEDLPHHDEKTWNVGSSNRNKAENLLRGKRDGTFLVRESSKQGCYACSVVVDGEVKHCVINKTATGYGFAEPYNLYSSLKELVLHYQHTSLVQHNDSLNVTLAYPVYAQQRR
T2 sequence (O00329 whole entry): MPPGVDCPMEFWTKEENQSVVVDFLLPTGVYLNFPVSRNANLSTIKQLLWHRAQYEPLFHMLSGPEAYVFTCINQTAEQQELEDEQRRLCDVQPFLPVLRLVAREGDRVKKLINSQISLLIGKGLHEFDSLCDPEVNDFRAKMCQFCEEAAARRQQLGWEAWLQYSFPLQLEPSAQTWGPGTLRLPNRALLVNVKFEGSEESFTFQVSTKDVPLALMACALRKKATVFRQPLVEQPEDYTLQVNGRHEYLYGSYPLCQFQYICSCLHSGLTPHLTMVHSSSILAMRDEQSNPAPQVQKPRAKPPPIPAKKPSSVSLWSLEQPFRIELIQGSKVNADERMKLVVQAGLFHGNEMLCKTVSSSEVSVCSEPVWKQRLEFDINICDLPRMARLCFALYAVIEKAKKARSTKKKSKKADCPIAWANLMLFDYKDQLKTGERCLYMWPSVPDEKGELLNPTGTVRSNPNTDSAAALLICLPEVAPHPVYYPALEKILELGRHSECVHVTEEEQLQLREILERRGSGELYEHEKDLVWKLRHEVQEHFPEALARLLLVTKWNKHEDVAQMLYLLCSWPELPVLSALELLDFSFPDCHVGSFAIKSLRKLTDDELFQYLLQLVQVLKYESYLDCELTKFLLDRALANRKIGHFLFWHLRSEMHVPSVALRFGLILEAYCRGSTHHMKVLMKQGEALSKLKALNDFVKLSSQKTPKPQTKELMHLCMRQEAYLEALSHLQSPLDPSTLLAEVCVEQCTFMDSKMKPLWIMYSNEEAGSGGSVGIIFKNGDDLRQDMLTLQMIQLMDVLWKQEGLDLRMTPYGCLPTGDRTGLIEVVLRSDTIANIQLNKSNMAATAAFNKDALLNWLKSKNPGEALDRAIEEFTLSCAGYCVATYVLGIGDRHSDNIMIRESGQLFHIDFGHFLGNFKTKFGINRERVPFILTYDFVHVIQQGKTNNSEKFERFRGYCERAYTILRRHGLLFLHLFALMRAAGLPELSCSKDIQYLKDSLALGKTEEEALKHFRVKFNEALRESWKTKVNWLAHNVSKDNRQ
T2 sequence (P27986 whole entry partner): as the sequence (P27986 whole entry partner) above

Regarding `FC(F)c1nc2ccccc2n1-c1nc(NC2CCCc3ccccc32)nc(N2CCOCC2)n1` (stereo not drawn) [Compound A1, 4-(2-(difluoromethyl)-1H-benzo[d]imidazol-1-yl)-6-morpholino-N-(1,2,3,4-tetrahydronaphthalen-1-yl)-1,3,5-triazin-2-amine], the IC50 in test [1] was above 500 nM. Moreover, in test [2], the IC50 lay in the range of 100 to 200 nM and the α/δ ratio result is “A′ (A′ represents a ratio of greater than 8)”.

`FC(F)c1nc2ccccc2n1-c1nc(N[C@H]2CCCc3ccccc32)nc(N2CCOCC2)n1` [Compound A2, (S)-4-(2-(difluoromethyl)-1H-benzo[d]imidazol-1-yl)-6-morpholino-N-(1,2,3,4-tetrahydronaphthalen-1-yl)-1,3,5-triazin-2-amine]: the IC50 is above 500 nM in test [1] and at most 100 nM in test [2]. The α/δ ratio result in test [2] is given as “A′ (A′ represents a ratio of greater than 8)”.

In the case of `FC(F)c1nc2ccccc2n1-c1nc(N[C@@H]2CCCc3ccccc32)nc(N2CCOCC2)n1` [Compound A3, (R)-4-(2-(difluoromethyl)-1H-benzo[d]imidazol-1-yl)-6-morpholino-N-(1,2,3,4-tetrahydronaphthalen-1-yl)-1,3,5-triazin-2-amine], the IC50 in test [1] and in test [2] was above 500 nM each time. Further, the α/δ ratio result in test [2] is “B′ (B′ represents a ratio of no less than 4 but no greater than 8)”.

The compound `FC(F)c1nc2ccccc2n1-c1nc(NC2CCc3ccccc32)nc(N2CCOCC2)n1` (stereo not drawn) [Compound A4, 4-(2-(difluoromethyl)-1H-benzo[d]imidazol-1-yl)-N-(2,3-dihydro-1H-inden-1-yl)-6-morpholino-1,3,5-triazin-2-amine] came in with an IC50 in test [1] above 500 nM. Moreover, in test [2], the half-inhibitory concentration (IC50) is at most 100 nM and the α/δ ratio result is reported as “A′ (A′ represents a ratio of greater than 8)”.

With `FC(F)c1nc2ccccc2n1-c1nc(N[C@H]2CCc3ccccc32)nc(N2CCOCC2)n1` [Compound A5, (S)-4-(2-(difluoromethyl)-1H-benzo[d]imidazol-1-yl)-N-(2,3-dihydro-1H-inden-1-yl)-6-morpholino-1,3,5-triazin-2-amine], the IC50 in test [1] was above 500 nM; in test [2], 100 to 200 nM. In addition, the α/δ ratio entry in test [2] is “A′ (A′ represents a ratio of greater than 8)”.

The compound `FC(F)c1nc2ccccc2n1-c1nc(N[C@@H]2CCc3ccccc32)nc(N2CCOCC2)n1` [Compound A6, (R)-4-(2-(difluoromethyl)-1H-benzo[d]imidazol-1-yl)-N-(2,3-dihydro-1H-inden-1-yl)-6-morpholino-1,3,5-triazin-2-amine] came in with an IC50 in test [1] above 500 nM. In test [2], the IC50 lay in the range of 200 to 500 nM and the α/δ ratio entry is listed as “C′ (C′ represents a ratio of greater than 2 but less than 4)”.

For the compound `FC(F)c1nc2ccccc2n1-c1nc(NC2CCc3cc(Cl)ccc32)nc(N2CCOCC2)n1` (stereo not drawn) [Compound A7, N-(5-chloro-2,3-dihydro-1H-inden-1-yl)-4-(2-(difluoromethyl)-1H-benzo[d]imidazol-1-yl)-6-morpholino-1,3,5-triazin-2-amine], the 50% inhibitory concentration (IC50) in test [1] was above 500 nM. For the same compound, in test [2], the IC50 is above 500 nM and the α/δ ratio result was “A′ (A′ represents a ratio of greater than 8)”.

With `FC(F)c1nc2ccccc2n1-c1nc(NC2CCc3ccc(Cl)cc32)nc(N2CCOCC2)n1` (stereo not drawn) [Compound A8, N-(6-chloro-2,3-dihydro-1H-inden-1-yl)-4-(2-(difluoromethyl)-1H-benzo[d]imidazol-1-yl)-6-morpholino-1,3,5-triazin-2-amine], the IC50 is above 500 nM in test [1] and 200 to 500 nM in test [2]. Also, the α/δ ratio result in test [2] is “A′ (A′ represents a ratio of greater than 8)”.

In the case of `COc1ccc2c(c1)CCC2Nc1nc(N2CCOCC2)nc(-n2c(C(F)F)nc3ccccc32)n1` (stereo not drawn) [Compound A9, 4-(2-(difluoromethyl)-1H-benzo[d]imidazol-1-yl)-N-(5-methoxy-2,3-dihydro-1H-inden-1-yl)-6-morpholino-1,3,5-triazin-2-amine], in test [1], the IC50 is above 500 nM. In test [2], the IC50 fell in the range of 200 to 500 nM and the α/δ ratio result was “C′ (C′ represents a ratio of greater than 2 but less than 4)”.

As to `COc1ccc2c(c1)C(Nc1nc(N3CCOCC3)nc(-n3c(C(F)F)nc4ccccc43)n1)CC2` (stereo not drawn) [Compound A10, 4-(2-(difluoromethyl)-1H-benzo[d]imidazol-1-yl)-N-(6-methoxy-2,3-dihydro-1H-inden-1-yl)-6-morpholino-1,3,5-triazin-2-amine], the IC50 in test [1] is above 500 nM. In test [2], the IC50 is 200 to 500 nM and the α/δ ratio entry is on record as “C′ (C′ represents a ratio of greater than 2 but less than 4)”.

Take `FC(F)c1nc2ccccc2n1-c1nc(NCc2ccccc2)nc(N2CCOCC2)n1` [Ref. 1, N-benzyl-4-(2-(difluoromethyl)-1H-benzo[d]imidazol-1-yl)-6-morpholino-1,3,5-triazin-2-amine, reference compound]: the IC50 in test [1] and in test [2] was 100 to 200 nM each time. Besides, the α/δ ratio result in test [2] is reported as “D′ (D′ represents a ratio of no greater than 2)”.
